Test results reported in patent US11680060B2, “Bicycloheptane pyrrolidine orexin receptor agonists” (Merck Sharp & Dohme LLC, priority 2020, dated 2023).

Molecular target: human OX2R (Homo sapiens (Human), UniProt O43614)
Experiment: IPOne (IP-1) assay in CHO cells expressing human OX2R
Format: cell-based
Details: for Emax: CHO, read-out: Emax (%); for Emax / Emax (%): percentage of mean max effect of a reference compound at 1 uM (100% activity by comparison to Orexin A), human OX2R; for IC50: CHO cells expressing human OX2R, IP-One detection, 2 hours incubation, EC50 = inflection point of four parameter logistic fit, read-out: hOX2R_IP_IC50
Procedure, shortened: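 CHO cells stably expressing human OX2R were stimulated with compound (10-point ½-log dilutions) for 2 h at 37 °C. IP-1 accumulation was read by HTRF (IP-One, 665/620 nm). EC50 from a four-parameter fit; % effect relative to 1 μM reference agonist control.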

Chain of human OX2R (O43614 whole entry): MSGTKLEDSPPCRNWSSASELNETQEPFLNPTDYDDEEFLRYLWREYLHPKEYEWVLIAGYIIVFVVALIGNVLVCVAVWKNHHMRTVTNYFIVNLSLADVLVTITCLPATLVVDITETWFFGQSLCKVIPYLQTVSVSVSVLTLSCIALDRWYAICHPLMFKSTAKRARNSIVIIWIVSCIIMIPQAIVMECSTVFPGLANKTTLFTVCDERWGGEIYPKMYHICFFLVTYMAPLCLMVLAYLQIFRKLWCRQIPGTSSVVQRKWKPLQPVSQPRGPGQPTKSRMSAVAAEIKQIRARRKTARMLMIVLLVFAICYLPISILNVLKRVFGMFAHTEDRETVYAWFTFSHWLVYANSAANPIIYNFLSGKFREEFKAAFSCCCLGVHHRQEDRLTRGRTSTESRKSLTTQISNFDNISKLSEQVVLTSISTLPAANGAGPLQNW

Structure (SMILES) | Emax [%] | IC50 [nM] | Emax (%)
C[C@@H]1C[C@H](NS(C)(=O)=O)[C@H](CO[C@H]2CC[C@@]3(c4ncc(F)cn4)C[C@H]3C2)N1C(=O)OCC(F)F [Example 66, 2,2-difluoroethyl (2R,3S,5R)-2-((((1S,3S,6R)-6-(5-fluoropyrimidin-2-yl)bicyclo[4.1.0]heptan-3-yl)oxy)methyl)-5-methyl-3-(methylsulfonamido)pyrrolidine-1-carboxylate] | 101 |  | 
CC(C)OC(=O)N1[C@H](C)C[C@H](NS(=O)(=O)C(F)F)[C@@H]1COC1CCC2(c3ncc(Cl)cn3)CC2C1 (stereo partly drawn) [Example 82, isopropyl (2R,3S,5R)-2-(((6-(5-chloropyrimidin-2-yl)bicyclo[4.1.0]heptan-3-yl)oxy)methyl)-3-((difluoromethyl)sulfonamido)-5-methylpyrrolidine-1-carboxylate] | 102 |  | 
CC(C)OC(=O)N1[C@H](C)C[C@H](NS(=O)(=O)CF)[C@@H]1COC1CCC2(c3ncc(F)cn3)CC2C1 (stereo partly drawn) [Example 111, isopropyl (2R,3S,5R)-3-((fluoromethyl)sulfonamido)-2-(((6-(5-fluoropyrimidin-2-yl)bicyclo[4.1.0]heptan-3-yl)oxy)methyl)-5-methylpyrrolidine-1-carboxylate] | 98.5 |  | 
COC(=O)N1[C@H](C)C[C@H](NS(C)(=O)=O)[C@@H]1COC1CCC2(c3ncc(F)c(C(F)F)n3)CC2C1 (stereo partly drawn) [Example 73, methyl (2R,3S,5R)-2-(((6-(4-(difluoromethyl)-5-fluoropyrimidin-2-yl)bicyclo[4.1.0]heptan-3-yl)oxy)methyl)-5-methyl-3-(methylsulfonamido)pyrrolidine-1-carboxylate] | 90.7 |  | 
COC(=O)N1[C@H](C)C[C@H](NS(=O)(=O)CC(C)C)[C@@H]1CO[C@H]1CC[C@@]2(c3ncc(F)cn3)C[C@H]2C1 [Example 35, methyl (2R,3S,5R)-2-((((1S,3S,6R)-6-(5-fluoropyrimidin-2-yl)bicyclo[4.1.0]heptan-3-yl)oxy)methyl)-5-methyl-3-((2-methylpropyl)sulfonamido)pyrrolidine-1-carboxylate] | 101 |  | 
COC(=O)N1[C@H](C)C[C@H](NS(=O)(=O)Cc2ccccc2)[C@@H]1CO[C@@H]1CC[C@]2(c3ncc(F)cn3)C[C@@H]2C1 [Example 45, methyl (2R,3S,5R)-2-((((1R,3R,6S)-6-(5-fluoropyrimidin-2-yl)bicyclo[4.1.0]heptan-3-yl)oxy)methyl)-5-methyl-3-((phenylmethyl)sulfonamido)pyrrolidine-1-carboxylate] | 92.7 |  | 
COC(=O)N1[C@H](C)C[C@H](NS(=O)(=O)N(C)C)[C@@H]1COC1CCC2(c3ccc(C#N)cc3)CC2C1 (stereo partly drawn) [Example 5, methyl (2R,3S,5R)-2-(((6-(4-cyanophenyl)bicyclo[4.1.0]heptan-3-yl)oxy)methyl)-3-((N,N-dimethylsulfamoyl)amino)-5-methylpyrrolidine-1-carboxylate] | 99.8 |  | 
CCC(C)S(=O)(=O)N[C@H]1C[C@@H](C)N(C(=O)OC)[C@H]1CO[C@H]1CC[C@@]2(c3ncc(F)cn3)C[C@H]2C1 (stereo partly drawn) [Example 41, methyl (2R,3S,5R)-2-((((1S,3S,6R)-6-(5-fluoropyrimidin-2-yl)bicyclo[4.1.0]heptan-3-yl)oxy)methyl)-5-methyl-3-((1-methylpropyl)sulfonamido)pyrrolidine-1-carboxylate] | 104 |  | 
CC(C)OC(=O)N1[C@H](C)C[C@H](NS(=O)(=O)C(F)F)[C@@H]1CO[C@H]1CC[C@@]2(c3ncc(F)cn3)C[C@H]2C1 (single isomer, unassigned) [Example 90] | 101 | 1.2 | 
COC(=O)N1[C@H](C)C[C@H](NS(=O)(=O)N(C)C)[C@@H]1COC1CCC2(c3cc(F)cc(F)c3)CC2C1 (stereo partly drawn) [Example 4, methyl (2R,3S,5R)-2-(((6-(3,5-difluorophenyl)bicyclo[4.1.0]heptan-3-yl)oxy)methyl)-3-((N,N-dimethylsulfamoyl)amino)-5-methylpyrrolidine-1-carboxylate] | 97.3 |  | 
CCS(=O)(=O)N[C@H]1C[C@@H](C(F)F)N(C(=O)OC)[C@H]1CO[C@H]1CC[C@@]2(c3ncc(Cl)cn3)C[C@H]2C1 (single isomer, unassigned) [Example 114] | 98.6 | 1.4 | 
CC(C)OC(=O)N1[C@H](C)C[C@H](NS(=O)(=O)CF)[C@@H]1CO[C@@H]1CC[C@]2(c3ncc(F)cn3)C[C@@H]2C1 (single isomer, unassigned) [Example 99] | 103 | 2.5 | 

The next lines start with the values.

Emax [%] | IC50 [nM] | Emax (%) | Structure (SMILES)
99.2 |  |  | COC(=O)N1[C@H](C)C[C@H](NS(=O)(=O)CF)[C@@H]1CO[C@H]1CC[C@@]2(c3ncc(F)cn3)C[C@H]2C1 [Example 30, methyl (2R,3S,5R)-3-((fluoromethyl)sulfonamido)-2-((((1S,3S,6R)-6-(5-fluoropyrimidin-2-yl)bicyclo[4.1.0]heptan-3-yl)oxy)methyl)-5-methylpyrrolidine-1-carboxylate]
99.7 |  |  | COC(=O)N1[C@H](C)C[C@H](NS(=O)(=O)C(F)F)[C@@H]1CO[C@H]1CC[C@@]2(c3ncccn3)C[C@H]2C1 [Example 68, methyl (2R,3S,5R)-3-((difluoromethyl)sulfonamido)-5-methyl-2-((((1S,3S,6R)-6-(pyrimidin-2-yl)bicyclo[4.1.0]heptan-3-yl)oxy)methyl)pyrrolidine-1-carboxylate]
105 |  |  | CCCS(=O)(=O)N[C@H]1C[C@@H](C)N(C(=O)OC)[C@H]1CO[C@H]1CC[C@@]2(c3ncc(F)cn3)C[C@H]2C1 [Example 33, methyl (2R,3S,5R)-2-((((1S,3S,6R)-6-(5-fluoropyrimidin-2-yl)bicyclo[4.1.0]heptan-3-yl)oxy)methyl)-5-methyl-3-(propylsulfonamido)pyrrolidine-1-carboxylate]
 | 2.1 | 100.0 | COC(=O)N1[C@H](C)C[C@H](NS(=O)(=O)N(C)C)[C@@H]1COC1CCC2(c3ncccn3)CC2C1 (single isomer, unassigned) [Example 187]
94.7 | 2030 |  | COC(=O)N1CC[C@H](NS(C)(=O)=O)[C@@H]1CO[C@@H]1CC[C@]2(c3ncccn3)C[C@@H]2C1 (single isomer, unassigned) [Example 176]
104 |  |  | C[C@@H]1C[C@H](NS(C)(=O)=O)[C@H](CO[C@H]2CC[C@@]3(c4ncc(F)cn4)C[C@H]3C2)N1C(=O)OCC1(F)CCC1 [Example 53, (1-fluorocyclobutyl)methyl (2R,3S,5R)-2-((((1S,3S,6R)-6-(5-fluoropyrimidin-2-yl)bicyclo[4.1.0]heptan-3-yl)oxy)methyl)-5-methyl-3-(methylsulfonamido)pyrrolidine-1-carboxylate]
98.1 |  |  | COC(=O)N1[C@H](C)C[C@H](NS(C)(=O)=O)[C@@H]1COC1CCC2(c3ncc(C)cn3)CC2C1 (stereo partly drawn) [Example 159, methyl (2R,3S,5R)-5-methyl-2-(((6-(5-methylpyrimidin-2-yl)bicyclo[4.1.0]heptan-3-yl)oxy)methyl)-3-(methylsulfonamido)pyrrolidine-1-carboxylate]
99.9 |  |  | COC(=O)N1[C@@H]2CCC[C@@H]2[C@H](NS(C)(=O)=O)[C@@H]1COC1CCC2(c3ncccn3)CC2C1 (stereo partly drawn) [Example 175, methyl (2R,3S,3aS,6aR)-3-(methylsulfonamido)-2-(((6-(pyrimidin-2-yl)bicyclo[4.1.0]heptan-3-yl)oxy)methyl)hexahydrocyclopenta[b]pyrrole-1(2H)-carboxylate]
101 |  |  | COC(=O)N1[C@H](C)C[C@H](NS(=O)(=O)C(F)(F)F)[C@@H]1CO[C@H]1CC[C@@]2(c3ncc(F)cn3)C[C@H]2C1 [Example 31, methyl (2R,3S,5R)-2-((((1S,3S,6R)-6-(5-fluoropyrimidin-2-yl)bicyclo[4.1.0]heptan-3-yl)oxy)methyl)-5-methyl-3-((trifluoromethyl)sulfonamido)pyrrolidine-1-carboxylate]
101 | 1.8 |  | COC(=O)N1[C@@H]2CCC[C@@H]2[C@H](NS(C)(=O)=O)[C@@H]1CO[C@H]1CC[C@@]2(c3ncc(F)cn3)C[C@H]2C1 (single isomer, unassigned) [Example 131]
102 | 19.2 |  | COC(=O)N1[C@H](C)C[C@H](NS(C)(=O)=O)[C@@H]1CO[C@H]1CC[C@@]2(c3ncc(C)cn3)C[C@H]2C1 (single isomer, unassigned) [Example 156]
100 |  |  | COC(=O)N1[C@H](C)C[C@H](NS(=O)(=O)C(C)C)[C@@H]1CO[C@H]1CC[C@@]2(c3ncc(F)cn3)C[C@H]2C1 [Example 38, methyl (2R,3S,5R)-2-((((1S,3S,6R)-6-(5-fluoropyrimidin-2-yl)bicyclo[4.1.0]heptan-3-yl)oxy)methyl)-5-methyl-3-((1-methylethyl)sulfonamido)pyrrolidine-1-carboxylate]
99.8 | 238 |  | COC(=O)N1CC[C@H](NS(C)(=O)=O)[C@@H]1CO[C@H]1CC[C@@]2(c3ncccn3)C[C@H]2C1 (single isomer, unassigned) [Example 177]
96.8 |  |  | COC(=O)N1[C@H](C)C[C@H](NS(C)(=O)=O)[C@@H]1COC1CCC2(c3nccs3)CC2C1 (stereo partly drawn) [Example 149, methyl (2R,3S,5R)-5-methyl-3-(methylsulfonamido)-2-(((6-(thiazol-2-yl)bicyclo[4.1.0]heptan-3-yl)oxy)methyl)pyrrolidine-1-carboxylate]
 | 1.5 |  | COC(=O)N1[C@H](C)C[C@H](NS(=O)(=O)N(C)C)[C@@H]1COC1CCC2(c3ncc(F)cn3)CC2C1 (stereo partly drawn) [Example 169, methyl (2R,3S,5R)-3-((N,N-dimethylsulfamoyl)amino)-2-(((6-(5-fluoropyrimidin-2-yl)bicyclo[4.1.0]heptan-3-yl)oxy)methyl)-5-methylpyrrolidine-1-carboxylate]
 |  | 94.7 | COC(=O)N1CC[C@H](NS(C)(=O)=O)[C@@H]1CO[C@@H]1CC[C@]2(c3ncccn3)C[C@@H]2C1 (single isomer, unassigned) [Example 25]
